# Data from PubChem BioAssay (NCI).
#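 Exposure lasted 48 hours, with cells grown in 96-well plates and compounds tested at five concentrations. Abbreviation: GI50, concentration required for 50% inhibition of growth. TGI denotes the concentration required for complete inhibition of growth.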
# What was measured:
# Experiment in all cases: growth of human tumour cells (NCI), 48 h
# ACHN renal = system: ACHN renal
# HCT-116 colon = system: HCT-116 colon
# IGROV1 ovarian = system: IGROV1 ovarian
# MOLT-4 leukemia = system: MOLT-4 leukemia
# NCI-H226 lung = system: NCI-H226 lung
# SF-295 CNS = system: SF-295 CNS
# SK-MEL-28 melanoma = system: SK-MEL-28 melanoma
# SNB-19 CNS = system: SNB-19 CNS
# U251 CNS = system: U251 CNS
# SK-MEL-2 melanoma = system: SK-MEL-2 melanoma
SMILES,GI50 (ACHN renal) [µM],TGI (ACHN renal) [µM],GI50 (HCT-116 colon) [µM],TGI (HCT-116 colon) [µM],GI50 (IGROV1 ovarian) [µM],TGI (IGROV1 ovarian) [µM],GI50 (MOLT-4 leukemia) [µM],TGI (MOLT-4 leukemia) [µM],GI50 (NCI-H226 lung) [µM],TGI (NCI-H226 lung) [µM],GI50 (SF-295 CNS) [µM],TGI (SF-295 CNS) [µM],GI50 (SK-MEL-28 melanoma) [µM],TGI (SK-MEL-28 melanoma) [µM],GI50 (SNB-19 CNS) [µM],TGI (SNB-19 CNS) [µM],GI50 (U251 CNS) [µM],TGI (U251 CNS) [µM],TGI (SK-MEL-2 melanoma) [µM],GI50 (SK-MEL-2 melanoma) [µM]
COc1ccc(/C=C/c2cc(OC)c(OC)c(OC)c2)cc1NC(=O)/C=C/c1ccc(F)cc1,6.3,> 100,3.98,> 100,5.71,> 100,4.48,> 100,3.82,89,1.57,64.4,5.04,> 100,4.37,> 100,3.17,> 100,–,–
CCCCC#COP(=O)(OCC)OCC,–,> 100,–,> 100,–,> 100,–,> 100,–,> 100,–,> 100,–,–,–,> 100,–,> 100,> 100,–
CN1CC(c2ccccc2)N(CCCCN2CC(c3ccccc3)N(C)CC2c2ccccc2)CC1c1ccccc1 (stereo unspecified),–,> 100,–,24.2,–,> 100,–,> 100,–,> 100,–,> 100,–,> 100,–,> 100,–,–,81.2,–
COc1cc([C@H](C)c2ccc3ccccc3c2)cc(OC)c1OC,0.857,> 100,–,–,0.804,> 100,0.504,> 100,2.94,> 100,0.201,> 100,5.25,> 100,0.601,> 100,0.333,21.1,65.4,0.527
CCN(CC)CCn1c2c3ccccc3ccc2c2oc(=O)c3ccccc3c21,–,> 100,–,> 100,–,> 100,–,–,–,–,–,> 100,–,> 100,–,> 100,–,> 100,> 100,–
COC(=O)CCC/C=C\C[C@H]1C=CC(=O)/C1=C/C[C@@H](O)CCc1cccc(C(F)(F)F)c1,1.83,3.54,1.78,4,3.71,13.9,2.29,6.46,–,–,2.12,5.21,1.98,5.2,4.04,16.6,2.06,4.96,11.5,3.19
COP1(=O)CC2C(Cl)(Cl)C2(C)C1 (stereo unspecified),–,–,–,> 100,–,> 100,–,> 100,–,> 100,–,> 100,–,> 100,–,> 100,–,> 100,–,–
N#CC(C#N)=C(N)/C(C#N)=C\c1ccnc2ccccc12,–,> 100,–,12.4,–,49.5,–,47.9,–,–,–,80.4,–,40.2,–,> 100,–,43.1,–,–
Cc1cc2c(CC(=O)O)[nH]nc2c(C(=O)O)c1C,–,> 100,–,> 100,–,–,–,> 100,–,> 100,–,> 100,–,> 100,–,> 100,–,> 100,> 100,–
Cc1cc2nc3c(C(OC4OC(CO)C(O)C(O)C4O)C(O)CO)nn(-c4ccccc4)c3nc2cc1C (stereo unspecified),–,> 100,–,> 100,–,–,–,> 100,–,–,–,> 100,–,> 100,–,> 100,–,> 100,–,–
CC(=O)CC1CCC(=O)CCC(=O)OC(CC(C)=O)CCC(=O)CCC(=O)O1 (stereo unspecified),–,> 100,–,> 100,–,> 100,–,> 100,–,> 100,–,> 100,–,> 100,–,> 100,–,> 100,–,–
O=C(Nc1ccc(Cl)cc1)Nc1ccc(Cl)c(Cl)c1,3.71,> 100,3.5,> 100,4.78,> 100,2.65,> 100,–,–,4.02,> 100,6.07,> 100,4.01,> 100,3.52,> 100,32.8,3.07
CC1=C2C(O)C(C(C)CO)C(O)CC2(C)C(O)CC1 (stereo unspecified),–,> 100,–,> 100,–,> 100,–,> 100,–,> 100,–,> 100,–,> 100,–,> 100,–,> 100,–,–
Cc1nc(N)sc1C(=O)/C=C/c1ccc(/C=C/C(=O)c2sc(NC(=O)CCCCCCCCC(=O)Nc3nc(C)c(C(=O)/C=C/c4ccc(/C=C/C(=O)c5sc(N)nc5C)cc4)s3)nc2C)cc1,–,> 100,–,> 100,–,> 100,–,> 100,–,–,–,> 100,–,> 100,–,> 100,–,> 100,> 100,–
c1cnc2c(c1)-n1cccc1C1(CCSCC1)NN2,–,> 100,–,> 100,–,–,–,> 100,–,> 100,–,> 100,–,> 100,–,> 100,–,–,> 100,–
O=[N+]([O-])c1c(/C=N/Nc2ccccc2)oc(-c2ccc3c(c2)OCO3)c1-c1ccc2c(c1)OCO2,–,> 100,–,> 100,–,> 100,–,–,–,> 100,–,> 100,–,> 100,–,> 100,–,–,24.2,–
CC1(C)C(=O)N(c2ccccc2)C(=O)N1c1nc2ccccc2[nH]1,–,> 100,–,> 100,–,> 100,–,> 100,–,> 100,–,> 100,–,> 100,–,> 100,–,–,> 100,–
CC(=O)Oc1cc(C)ccc1[C@]1(C)CC[C@H](C)/C1=C\Br,5.7,20.1,4.44,18.8,7.6,26.6,5.22,22.8,–,–,3.96,13.2,3.62,15.6,3.97,17.4,4.92,16.6,24.7,7.21
N#CCCc1nc2ccc(Br)cc2c(=O)n1CCO,–,–,–,–,–,> 100,–,> 100,–,> 100,–,> 100,–,> 100,–,–,–,–,> 100,–
CCOC(=O)CCC(=O)C1c2cccc(O)c2C(=O)c2c(O)cccc21,–,2.9,–,2.6,–,4.72,–,13.7,–,–,–,1.95,–,2.68,–,3.7,–,1.53,–,–
COc1cc(-c2nc3ccc(C)cc3[nH]2)ccc1OCC(=O)N=Nc1c(O)[nH]c2ccccc12,3.39,13.6,0.442,1.66,1.73,3.48,–,–,–,–,1.94,3.82,1.77,3.16,1.83,3.51,–,–,–,–
